Measured values: PMC10176470, “Engaging a Non-catalytic Cysteine Residue Drives Potent and Selective Inhibition of Caspase-6” (Journal of the American Chemical Society, 2023)

Columns and labels:
Experiment in all cases: SILAC proteomics / in-gel fluorescence, competition of probe 13-t labeling by 3a
[1] = biological target: T1, proteins of HEK293T cells transiently overexpressing caspase-6 (Homo sapiens, UniProt O75844)
T1 sequence (O75844 1-475): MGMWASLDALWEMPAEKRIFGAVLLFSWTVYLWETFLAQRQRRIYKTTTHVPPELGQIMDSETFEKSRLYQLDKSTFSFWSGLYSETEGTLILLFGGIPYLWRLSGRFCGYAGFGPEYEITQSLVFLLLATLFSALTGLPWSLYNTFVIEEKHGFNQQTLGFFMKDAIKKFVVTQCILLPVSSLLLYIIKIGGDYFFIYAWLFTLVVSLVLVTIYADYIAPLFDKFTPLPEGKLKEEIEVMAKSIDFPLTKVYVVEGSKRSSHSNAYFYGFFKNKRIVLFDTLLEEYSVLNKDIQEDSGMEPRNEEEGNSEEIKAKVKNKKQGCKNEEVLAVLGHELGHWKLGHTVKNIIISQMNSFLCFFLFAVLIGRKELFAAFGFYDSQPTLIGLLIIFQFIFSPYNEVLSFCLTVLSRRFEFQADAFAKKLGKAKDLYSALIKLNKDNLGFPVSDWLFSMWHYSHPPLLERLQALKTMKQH

[2] = biological target: proteins of HEK293T cells transiently overexpressing caspase-6 (Homo sapiens, UniProt P06733); details: Comp; protein ENO1 P06733
Chain of proteins of HEK293T cells transiently overexpressing caspase-6 (Homo sapiens, UniProt P06733) (P06733 whole entry): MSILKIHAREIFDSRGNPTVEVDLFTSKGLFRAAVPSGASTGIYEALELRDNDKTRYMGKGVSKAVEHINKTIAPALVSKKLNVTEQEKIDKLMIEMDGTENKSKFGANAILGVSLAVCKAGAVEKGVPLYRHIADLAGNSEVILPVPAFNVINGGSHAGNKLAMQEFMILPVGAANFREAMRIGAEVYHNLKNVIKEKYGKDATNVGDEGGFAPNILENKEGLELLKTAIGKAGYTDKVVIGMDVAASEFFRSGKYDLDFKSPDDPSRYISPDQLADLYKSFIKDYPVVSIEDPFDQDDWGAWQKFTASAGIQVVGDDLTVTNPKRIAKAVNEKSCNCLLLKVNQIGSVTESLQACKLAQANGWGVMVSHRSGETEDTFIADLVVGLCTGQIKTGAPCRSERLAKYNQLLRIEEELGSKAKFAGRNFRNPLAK

[3] = biological target: proteins of HEK293T cells transiently overexpressing caspase-6 (Homo sapiens, UniProt P12268)
[4] = biological target: T2, proteins of HEK293T cells transiently overexpressing caspase-6 (Homo sapiens, UniProt P25789)
T2 sequence (P25789 1-261): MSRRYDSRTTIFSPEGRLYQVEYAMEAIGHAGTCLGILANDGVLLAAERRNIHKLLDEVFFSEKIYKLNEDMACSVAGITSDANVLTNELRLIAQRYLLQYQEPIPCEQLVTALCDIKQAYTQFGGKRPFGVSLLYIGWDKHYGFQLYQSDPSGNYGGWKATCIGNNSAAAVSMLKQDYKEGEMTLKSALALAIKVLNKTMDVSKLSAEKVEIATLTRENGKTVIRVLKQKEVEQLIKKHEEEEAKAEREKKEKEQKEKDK

[5] = biological target: proteins of HEK293T cells transiently overexpressing caspase-6 (Homo sapiens, UniProt P26641); details: Comp; protein EEF1G P26641
[6] = biological target: proteins of HEK293T cells transiently overexpressing caspase-6 (Homo sapiens, UniProt P31689)
Chain of proteins of HEK293T cells transiently overexpressing caspase-6 (Homo sapiens, UniProt P31689) (P31689 whole entry): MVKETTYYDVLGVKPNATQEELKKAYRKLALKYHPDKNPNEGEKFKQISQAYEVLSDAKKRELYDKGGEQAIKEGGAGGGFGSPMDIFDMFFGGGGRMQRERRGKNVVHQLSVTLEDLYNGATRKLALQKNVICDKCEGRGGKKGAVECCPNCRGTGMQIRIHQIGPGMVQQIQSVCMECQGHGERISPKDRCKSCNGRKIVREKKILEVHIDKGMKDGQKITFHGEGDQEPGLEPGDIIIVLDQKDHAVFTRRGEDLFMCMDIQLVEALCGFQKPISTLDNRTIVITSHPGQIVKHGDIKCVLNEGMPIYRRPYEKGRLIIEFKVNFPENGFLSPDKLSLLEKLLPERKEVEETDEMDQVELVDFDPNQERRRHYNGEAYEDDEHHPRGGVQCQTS

[7] = biological target: proteins of HEK293T cells transiently overexpressing caspase-6 (Homo sapiens, UniProt P31946); details: Comp; protein YWHAB P31946
Chain of proteins of HEK293T cells transiently overexpressing caspase-6 (Homo sapiens, UniProt P31946) (P31946 whole entry): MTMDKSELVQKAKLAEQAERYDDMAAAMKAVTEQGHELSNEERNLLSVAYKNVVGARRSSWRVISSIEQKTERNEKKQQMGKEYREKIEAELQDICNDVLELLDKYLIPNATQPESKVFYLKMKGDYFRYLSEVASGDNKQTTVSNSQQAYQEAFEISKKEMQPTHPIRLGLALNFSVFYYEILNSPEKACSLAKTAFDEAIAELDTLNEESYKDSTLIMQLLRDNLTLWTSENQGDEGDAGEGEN

[8] = biological target: proteins of HEK293T cells transiently overexpressing caspase-6 (Homo sapiens, UniProt P38606); details: Comp; protein ATP6V1A P38606
Chain of proteins of HEK293T cells transiently overexpressing caspase-6 (Homo sapiens, UniProt P38606) (P38606 whole entry): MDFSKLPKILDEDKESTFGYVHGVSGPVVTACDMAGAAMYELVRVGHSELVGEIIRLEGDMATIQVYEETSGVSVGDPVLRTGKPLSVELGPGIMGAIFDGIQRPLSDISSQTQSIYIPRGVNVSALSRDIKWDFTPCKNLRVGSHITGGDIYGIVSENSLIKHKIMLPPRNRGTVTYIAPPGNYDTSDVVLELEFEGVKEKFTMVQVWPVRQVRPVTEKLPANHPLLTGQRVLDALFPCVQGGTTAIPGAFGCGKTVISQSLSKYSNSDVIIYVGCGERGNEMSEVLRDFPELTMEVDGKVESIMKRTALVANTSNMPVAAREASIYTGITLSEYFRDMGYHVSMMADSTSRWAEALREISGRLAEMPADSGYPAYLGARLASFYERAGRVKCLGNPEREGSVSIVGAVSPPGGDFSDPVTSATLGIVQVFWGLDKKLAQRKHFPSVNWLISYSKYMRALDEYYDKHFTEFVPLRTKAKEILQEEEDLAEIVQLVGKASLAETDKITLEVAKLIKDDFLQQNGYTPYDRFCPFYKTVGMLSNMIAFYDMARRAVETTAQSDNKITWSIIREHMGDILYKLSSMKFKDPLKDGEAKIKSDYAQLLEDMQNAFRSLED

[9] = biological target: proteins of HEK293T cells transiently overexpressing caspase-6 (Homo sapiens, UniProt P52209); details: Comp; protein PGD P52209
[10] = biological target: proteins of HEK293T cells transiently overexpressing caspase-6 (Homo sapiens, UniProt P62241); details: Comp; protein RPS8 P62241
[11] = biological target: proteins of HEK293T cells transiently overexpressing caspase-6 (Homo sapiens, UniProt Q04637); details: Comp; protein EIF4G1 Q04637
Chain of proteins of HEK293T cells transiently overexpressing caspase-6 (Homo sapiens, UniProt Q04637) (Q04637 whole entry): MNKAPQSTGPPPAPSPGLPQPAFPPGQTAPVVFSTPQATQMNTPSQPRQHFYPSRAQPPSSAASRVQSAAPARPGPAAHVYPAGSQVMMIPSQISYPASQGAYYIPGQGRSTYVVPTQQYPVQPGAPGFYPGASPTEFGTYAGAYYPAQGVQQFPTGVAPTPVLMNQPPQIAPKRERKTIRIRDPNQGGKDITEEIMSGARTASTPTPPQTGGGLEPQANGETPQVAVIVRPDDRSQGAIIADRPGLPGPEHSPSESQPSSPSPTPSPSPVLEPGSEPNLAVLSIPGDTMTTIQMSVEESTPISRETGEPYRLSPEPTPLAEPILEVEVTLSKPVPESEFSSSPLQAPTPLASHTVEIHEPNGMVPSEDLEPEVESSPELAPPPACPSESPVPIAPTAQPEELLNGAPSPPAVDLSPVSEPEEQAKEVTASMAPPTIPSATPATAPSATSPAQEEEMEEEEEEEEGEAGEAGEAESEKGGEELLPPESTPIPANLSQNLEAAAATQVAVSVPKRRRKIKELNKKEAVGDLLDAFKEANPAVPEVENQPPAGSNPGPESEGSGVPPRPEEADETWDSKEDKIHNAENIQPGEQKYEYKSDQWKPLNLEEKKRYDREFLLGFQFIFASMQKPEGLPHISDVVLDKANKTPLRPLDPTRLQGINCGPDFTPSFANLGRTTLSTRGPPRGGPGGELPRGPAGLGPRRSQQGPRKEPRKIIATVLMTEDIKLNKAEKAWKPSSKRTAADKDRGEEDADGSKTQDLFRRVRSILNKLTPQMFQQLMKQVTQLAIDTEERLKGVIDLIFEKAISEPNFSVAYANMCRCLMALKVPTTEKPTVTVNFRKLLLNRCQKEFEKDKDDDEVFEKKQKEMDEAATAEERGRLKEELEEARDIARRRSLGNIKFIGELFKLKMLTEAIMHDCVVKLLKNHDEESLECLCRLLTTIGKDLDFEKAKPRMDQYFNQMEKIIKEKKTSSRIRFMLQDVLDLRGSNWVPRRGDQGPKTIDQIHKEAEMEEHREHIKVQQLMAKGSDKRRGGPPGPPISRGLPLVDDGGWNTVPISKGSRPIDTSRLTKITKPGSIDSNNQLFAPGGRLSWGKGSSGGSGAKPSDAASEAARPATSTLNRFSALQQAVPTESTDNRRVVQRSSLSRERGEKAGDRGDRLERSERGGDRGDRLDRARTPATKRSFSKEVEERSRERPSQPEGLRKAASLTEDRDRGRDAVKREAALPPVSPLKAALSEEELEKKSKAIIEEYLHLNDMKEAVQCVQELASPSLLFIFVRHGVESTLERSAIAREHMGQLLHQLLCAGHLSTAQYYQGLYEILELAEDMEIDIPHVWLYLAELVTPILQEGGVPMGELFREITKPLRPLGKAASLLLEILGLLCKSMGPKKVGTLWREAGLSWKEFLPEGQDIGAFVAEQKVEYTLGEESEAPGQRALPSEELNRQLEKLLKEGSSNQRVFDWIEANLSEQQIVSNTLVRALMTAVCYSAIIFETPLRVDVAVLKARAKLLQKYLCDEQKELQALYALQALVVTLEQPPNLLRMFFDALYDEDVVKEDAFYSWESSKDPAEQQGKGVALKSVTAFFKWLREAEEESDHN

[12] = biological target: proteins of HEK293T cells transiently overexpressing caspase-6 (Homo sapiens, UniProt Q14566); details: Comp; protein MCM6 Q14566
Chain of proteins of HEK293T cells transiently overexpressing caspase-6 (Homo sapiens, UniProt Q14566) (Q14566 whole entry): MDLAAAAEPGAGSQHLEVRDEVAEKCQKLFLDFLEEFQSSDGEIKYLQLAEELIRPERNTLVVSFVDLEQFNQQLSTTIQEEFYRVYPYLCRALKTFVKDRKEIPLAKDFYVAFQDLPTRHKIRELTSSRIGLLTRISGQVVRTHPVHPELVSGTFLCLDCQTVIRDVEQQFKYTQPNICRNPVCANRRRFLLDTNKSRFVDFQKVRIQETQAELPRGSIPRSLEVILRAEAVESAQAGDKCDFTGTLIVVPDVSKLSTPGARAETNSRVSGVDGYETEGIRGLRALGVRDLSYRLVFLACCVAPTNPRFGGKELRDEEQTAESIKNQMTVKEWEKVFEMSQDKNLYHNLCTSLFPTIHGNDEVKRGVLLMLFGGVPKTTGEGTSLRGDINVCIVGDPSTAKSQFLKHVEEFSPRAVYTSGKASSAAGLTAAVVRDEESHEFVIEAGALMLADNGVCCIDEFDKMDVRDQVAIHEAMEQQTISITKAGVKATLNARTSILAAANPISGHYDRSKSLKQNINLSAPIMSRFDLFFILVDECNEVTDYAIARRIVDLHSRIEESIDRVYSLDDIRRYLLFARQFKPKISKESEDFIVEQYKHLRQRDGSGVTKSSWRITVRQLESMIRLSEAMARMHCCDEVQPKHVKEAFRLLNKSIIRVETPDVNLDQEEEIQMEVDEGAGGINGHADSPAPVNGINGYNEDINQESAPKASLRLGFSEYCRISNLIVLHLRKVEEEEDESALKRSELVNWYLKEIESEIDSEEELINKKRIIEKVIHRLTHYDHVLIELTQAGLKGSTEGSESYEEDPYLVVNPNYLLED

[13] = biological target: proteins of HEK293T cells transiently overexpressing caspase-6 (Homo sapiens, UniProt Q15185); details: Comp; protein PTGES3 Q15185
Chain of proteins of HEK293T cells transiently overexpressing caspase-6 (Homo sapiens, UniProt Q15185) (Q15185 whole entry): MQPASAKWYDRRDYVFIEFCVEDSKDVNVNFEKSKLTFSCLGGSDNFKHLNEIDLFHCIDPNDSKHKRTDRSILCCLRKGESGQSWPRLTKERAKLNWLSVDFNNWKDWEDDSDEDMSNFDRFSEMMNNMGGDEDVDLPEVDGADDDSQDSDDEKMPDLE

[14] = biological target: proteins of HEK293T cells transiently overexpressing caspase-6 (Homo sapiens, UniProt Q9BZZ5); details: Comp; protein API5 Q9BZZ5
Chain of proteins of HEK293T cells transiently overexpressing caspase-6 (Homo sapiens, UniProt Q9BZZ5) (Q9BZZ5 whole entry): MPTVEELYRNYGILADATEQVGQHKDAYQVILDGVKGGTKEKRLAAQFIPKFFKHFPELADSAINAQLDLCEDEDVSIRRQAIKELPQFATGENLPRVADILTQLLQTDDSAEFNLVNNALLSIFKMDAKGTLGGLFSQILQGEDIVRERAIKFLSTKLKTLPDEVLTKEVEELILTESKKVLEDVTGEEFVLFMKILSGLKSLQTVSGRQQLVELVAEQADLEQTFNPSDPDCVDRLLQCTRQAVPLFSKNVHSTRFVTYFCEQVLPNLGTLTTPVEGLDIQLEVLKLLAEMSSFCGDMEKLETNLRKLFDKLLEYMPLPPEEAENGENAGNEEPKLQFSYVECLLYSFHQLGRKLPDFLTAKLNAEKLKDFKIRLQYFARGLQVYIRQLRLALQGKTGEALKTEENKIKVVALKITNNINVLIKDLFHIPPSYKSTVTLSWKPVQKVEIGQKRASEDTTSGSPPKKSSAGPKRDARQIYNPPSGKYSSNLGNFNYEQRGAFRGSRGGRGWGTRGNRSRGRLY

[15] = biological target: proteins of HEK293T cells transiently overexpressing caspase-6 (Homo sapiens, UniProt Q9NR30); details: Comp; protein DDX21 Q9NR30
[16] = biological target: proteins of HEK293T cells transiently overexpressing caspase-6 (Homo sapiens, UniProt Q9Y230); details: Comp; protein RUVBL2 Q9Y230
[17] = protein ZMPSTE24 (O75844), Exp Comp, analysis C6, p 0.5000, 2 peptides
[18] = protein IMPDH2 (P12268), Exp Comp, analysis C6, p 0.0078, 8 peptides
[19] = protein PSMA4 (P25789), Exp Comp, analysis C6, p 0.0625, 5 peptides
[20] = protein DNAJA1 (P31689), Exp Comp, analysis C6, p 0.0625, 5 peptides

For `C=CS(=O)(=O)N1C[C@H](C(=O)Nc2ccc(OC(F)(F)F)cc2)C[C@@H](c2ccccc2)C1` [3a], which enrich.exp.med ([1]; Comp, protein ZMPSTE24 O75844) is on record?
The enrich.exp.med was 1.01.

And the enrich.exp.med.lin [1, 17]?
The enrich.exp.med.lin was 2.0144.

And the enrich.exp.med.log2 [1, 17]?
The enrich.exp.med.log2 was 1.01.

What about the enrich.exp.med [2] of the same molecule?
The enrich.exp.med was 0.6321.

And the enrich.exp.med ([3]; Comp, protein IMPDH2 P12268)?
The enrich.exp.med was 0.9888.

And the enrich.exp.med.lin [3, 18]?
Its enrich.exp.med.lin is 1.985.

And the enrich.exp.med.log2 [3, 18]?
The enrich.exp.med.log2 was 0.9888.

What about the enrich.exp.med ([4]; Comp, protein PSMA4 P25789) of the same molecule?
Its enrich.exp.med is 0.9624.

And the enrich.exp.med.lin [4, 19]?
The enrich.exp.med.lin was 1.949.

And the enrich.exp.med.log2 [4, 19]?
The enrich.exp.med.log2 was 0.9624.

What about the enrich.exp.med [5] of the same molecule?
The enrich.exp.med was 0.7548.

And the enrich.exp.med ([6]; Comp, protein DNAJA1 P31689)?
The enrich.exp.med was 1.02.

What about the enrich.exp.med.lin [6, 20] of the same molecule?
Its enrich.exp.med.lin is 2.028.

And the enrich.exp.med.log2 [6, 20]?
Its enrich.exp.med.log2 is 1.02.

What about the enrich.exp.med [7] of the same molecule?
The enrich.exp.med was 0.6188.

And the enrich.exp.med [8]?
The enrich.exp.med was 0.8033.

And the enrich.exp.med [9]?
Its enrich.exp.med is 0.9271.

And the enrich.exp.med [10]?
Its enrich.exp.med is 0.6264.

What about the enrich.exp.med [11] of the same molecule?
Its enrich.exp.med is 0.702.

And the enrich.exp.med [12]?
The enrich.exp.med was 0.8484.

What about the enrich.exp.med [13] of the same molecule?
Its enrich.exp.med is 0.8422.

What about the enrich.exp.med [14] of the same molecule?
Its enrich.exp.med is 0.5956.

And the enrich.exp.med [15]?
The enrich.exp.med was 0.6506.

And the enrich.exp.med [16]?
The enrich.exp.med was 0.7589.
